Reference: US8685974B2 (Bayer CropScience AG, priority 2009, dated 2014)
Read-outs that look alike come from different tables or passages of the source. Marks after values point to notes of the source that are not given here.

Experiments:
Fusarium graminearum = assay type: cell-based; settings: 50 μM; for % Inhibition of DON/AcDON at 50 μM: 7 days at 28° C.
Alternaria solani = assay: Alternaria test (tomato) / protective; assay type: in vivo; settings: 500 ppm active compound, protective spray, evaluated 7 days after inoculation
Protocol: Alternaria Test (Tomato)/Protective
Solvent: 49 parts by weight of N,N-dimethylformamide
Emulsifier: 1 part by weight of alkylaryl polyglycol ether
To produce a suitable preparation of active compound, 1 part by weight of active compound is mixed with the stated amounts of solvent and emulsifier, and the concentrate is diluted with water to the desired concentration.
To test for protective activity, young tomato plants are sprayed with the preparation of active compound at the stated application rate. […] The plants then remain at 96% rel. atmospheric humidity and a temperature of 20° C.
Evaluation is carried out 7 days after the inoculation. 0% means an efficacy which corresponds to that of the control, whereas an efficacy of 100% means that no infection is observed.

Row | SMILES | % Inhibition of fungal growth at 50 μM (Fusarium graminearum) | % Inhibition of DON/AcDON at 50 μM (Fusarium graminearum) | efficacy (Alternaria solani) | log p (pH 2.7) | logP value of the minor isomer (pH 2.7) | log p (pH 7.8) | logP value of the minor isomer (pH 7.8) | log p (pH 2.3) | logP value of the minor isomer (in parenthesis in column Isomer ratio [d]) (minor isomer, main value of the example measured by method [a], pH 2.3)
1 | CCC(CC)n1cc(-c2ccncc2)c(-c2ccc(F)s2)n1 [Example 380] | 82% | 99% | 89% | 2.04^[b] | (1.95) |  |  |  | 
2 | FCCn1cc(-c2ccncc2)c(-c2ccc(F)s2)n1 [Example 375] | 78% | 99% | 100% | 1.16^[b] |  |  |  |  | 
3 | CCn1cc(-c2ccncc2)c(-c2ccc(F)s2)n1 [Example 377] | 89% | 99% | 100% | 1.28^[b] | (1.22) |  |  |  | 
4 | Fc1ccc(-c2nn(C3CCCC3)cc2-c2ccncc2)s1 [Example 344] | 91% | 98% | 94% | 2.02^[b] |  |  |  |  | 
5 | O=C1OCCC1n1cc(-c2ccncc2)c(-c2ccc(Cl)s2)n1 (centres unmarked) [Example 365] | 100% | 90% | 78% | 1.48^[b] |  |  |  |  | 
6 | FC(F)Cn1cc(-c2ccncc2)c(-c2cc3ccsc3s2)n1 [Example 371] | 82% | 99% | 78% | 1.63^[b] |  |  |  |  | 
7 | CCC(C)n1cc(-c2ccncc2)c(-c2cc3ccsc3s2)n1 (centres unmarked) [Example 328] | 100% | 98% | 94% | 2.07^[b] |  |  |  |  | 
8 | O=C1OCCC1n1cc(-c2ccncc2)c(-c2ccc(Br)s2)n1 (centres unmarked) [Example 385] | 17% | 82% | 94% | 1.52^[b] |  |  |  |  | 
9 | Clc1ccc(Cn2cc(-c3ccncc3)c(-c3ccc(Cl)s3)n2)s1 [Example 323] | 6% | 94% | 78% | 2.64^[b] |  |  |  |  | 
10 | CCC(C)n1cc(-c2ccnc(NC(=O)OC(C)C)c2)c(-c2ccc(Cl)s2)n1 (centres unmarked) [Example 239] |  |  | 80% | 4.33^[b] |  |  |  |  | 
11 | CC(C)Cn1cc(-c2ccncc2)c(-c2cc3ccsc3s2)n1 [Example 369] | 100% | 99% | 94% | 2.04^[b] |  |  |  |  | 
12 | CC(C)n1cc(-c2ccncc2)c(-c2cc3ccsc3s2)n1 [Example 366] | 93% | 98% | 78% | 1.79^[b] |  |  |  |  | 
13 | FC(F)(F)Cn1cc(-c2ccncc2)c(-c2ccc(Br)s2)n1 [Example 391] | 97% | 99% | 100% | 1.98^[b] |  |  |  |  | 
14 | C=CC(C)n1cc(-c2ccncc2)c(-c2cc3ccsc3s2)n1 (centres unmarked) [Example 368] | 100% | 99% | 78% | 1.94^[b] |  |  |  |  | 
15 | Fc1ccc(-c2nn(CC(F)F)cc2-c2ccncc2)s1 [Example 373] | 97% | 99% | 100% | 1.34^[b] |  |  |  |  | 
16 | Cn1cc(-c2ccnc(N)c2)c(-c2ccc(Cl)s2)n1 [Example 305] |  |  | 70% | 1.34^[b] |  |  |  |  | 
17 | c1cc(-c2cn(C3CCCC3)nc2-c2cc3ccsc3s2)ccn1 [Example 332] |  |  | 94% | 2.25^[b] |  |  |  |  | 
18 | CC(C)n1cc(-c2ccnc(NC(=O)c3ccccc3)c2)c(-c2ccc(Cl)s2)n1 [Example 260] |  |  | 80% | 4.03^[b] |  |  |  |  | 
19 | CCCc1c(-c2ccncc2)c(-c2sccc2C)nn1C [Example 165] |  |  | 70% | 1.31^[b] | 1.46^[b]) | 2.59^[c]; | (2.79^[c]; |  | 
20 | CC1(Cn2cc(-c3ccncc3)c(-c3ccc(F)s3)n2)CC1(Cl)Cl (centres unmarked) [Example 342] | 23% | 97% | 89% | 2.39^[b] |  |  |  |  | 
21 | C=CC(C)n1cc(-c2ccncc2)c(-c2ccc(F)s2)n1 (centres unmarked) [Example 376] | 84% | 99% | 100% | 1.73^[b] |  |  |  |  | 

Row | SMILES | % Inhibition of fungal growth at 50 μM (Fusarium graminearum) | % Inhibition of DON/AcDON at 50 μM (Fusarium graminearum) | efficacy (Alternaria solani) | log p (pH 2.7) | logP value of the minor isomer (pH 2.7) | log p (pH 7.8) | logP value of the minor isomer (pH 7.8) | log p (pH 2.3) | logP value of the minor isomer (in parenthesis in column Isomer ratio [d]) (minor isomer, main value of the example measured by method [a], pH 2.3)
22 | C=CC(C)n1cc(-c2ccncc2)c(-c2ccc(Br)s2)n1 (centres unmarked) [Example 389] | 96% | 99% | 94% | 2.03^[b] | (1.88) |  |  |  | 
23 | CC(C)Cn1cc(-c2ccnc(N(C(=O)C3CC3)C(=O)C3CC3)c2)c(-c2ccc(Cl)s2)n1 [Example 82] |  |  | 78% |  |  |  |  | 4.75^[a] | 
24 | CC(C)Cn1cc(-c2ccncc2)c(-c2ccc(F)s2)n1 [Example 379] | 90% | 99% | 94% | 1.82^[b] | (1.72) |  |  |  | 
25 | FC(F)(F)Cn1cc(-c2ccncc2)c(-c2cc3ccsc3s2)n1 [Example 330] | 31% | 94% | 94% | 1.91^[b] |  |  |  |  | 
26 | CC(C)(C)Cn1cc(-c2ccncc2)c(-c2cc3ccsc3s2)n1 [Example 334] |  |  | 78% | 2.35^[b] |  |  |  |  | 
27 | CC(C)(C)Cn1cc(-c2ccncc2)c(-c2ccc(Br)s2)n1 [Example 347] | 79% | 99% | 70% | 2.46^[b] |  |  |  |  | 
28 | CC(C)Cn1nc(-c2ccc(Cl)s2)c(-c2ccncc2)c1Br [Example 395] | 0% | 99% | 78% | 3.58^[b] |  |  |  |  | 
29 | CCn1cc(-c2ccncc2)c(-c2cc3ccsc3s2)n1 [Example 329] | 85% | 98% | 94% | 1.57^[b] |  |  |  |  | 
30 | CCC(C)n1nc(-c2ccc(Cl)s2)c(-c2ccncc2)c1Br (centres unmarked) [Example 394] | 92% | 100% | 94% | 3.69^[b] |  |  |  |  | 
31 | Fc1cccc(Cn2cc(-c3ccncc3)c(-c3ccc(Br)s3)n2)c1F [Example 353] |  |  | 78% | 2.44^[b] |  |  |  |  | 
32 | Fc1ccc(-c2nn(CC(F)(F)F)cc2-c2ccncc2)s1 [Example 378] | 54% | 99% | 100% | 1.64^[b] | (1.46) |  |  |  | 
33 | CCn1cc(-c2ccncc2)c(-c2ccc(Br)s2)n1 [Example 390] | 100% | 99% | 100% | 1.6^[b] | (1.49) |  |  |  | 
34 | FCCn1cc(-c2ccncc2)c(-c2cc3ccsc3s2)n1 [Example 367] | 78% | 99% | 78% | 1.45^[b] |  |  |  |  | 
35 | CCOCCn1cc(-c2ccncc2)c(-c2cc3ccsc3s2)n1 [Example 337] | 100% | 99% | 94% | 1.7^[b] |  |  |  |  | 
36 | CCC(C)n1nc(-c2ccc(Cl)s2)c(-c2ccncc2)c1Cl (centres unmarked) [Example 201] | 39% | 94% | 78% | 3.44^[b] |  |  |  |  | 
37 | CC(C)Cn1cc(-c2ccnc(N)c2)c(-c2ccc(Cl)s2)n1 [Example 76] |  |  | 89% |  |  |  |  | 2.04^[a] | (1.93)
38 | CCOCCn1cc(-c2ccncc2)c(-c2ccc(F)s2)n1 [Example 374] | 58% | 99% | 94% | 1.43^[b] |  |  |  |  | 
39 | Fc1ccc(-c2nn(CCCl)cc2-c2ccncc2)s1 [Example 381] | 91% | 99% | 94% | 1.45^[b] | (1.34) |  |  |  | 
40 | CCC(CC)n1cc(-c2ccncc2)c(-c2cc3ccsc3s2)n1 [Example 333] | 86% | 98% | 94% | 2.3^[b] |  |  |  |  | 
41 | CC(C)(C)Cn1cc(-c2ccncc2)c(-c2ccc(F)s2)n1 [Example 345] | 63% | 97% | 94% | 2.11^[b] |  |  |  |  | 
42 | CC(C)n1cc(-c2ccncc2)c(-c2cccs2)n1 [Example 300] | 100% | 99% | 95% | 1.27^[b] |  |  |  |  | 
